Our source for the GI50 and TGI values is PubChem BioAssay (NCI).

The structures appear in SMILES notation.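 How tested: cells in 96-well plates exposed to compound for 48 hours at five concentrations. GI50 marks 50% less growth. TGI is the concentration that stops growth completely.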 Some results are limits rather than exact numbers.

Among the test systems are SF-539 CNS; COLO 205 colon; SNB-75 CNS; SK-MEL-5 melanoma; HOP-62 NSCLC; SW-620 colon; OVCAR-3 ovarian; K-562 leukemia; MCF7 breast.
Common to all, as to test: NCI anticancer screen, dose series, 48 h

As for `Clc1cccc(N2CCN(CCCN3CCc4c([nH]c5ccccc45)C3c3cccnc3)CC2)c1` (configuration not stated), the GI50 was 11.7 µM in the assay on SF-539 CNS; 5.42 µM with COLO 205 colon; 6.79 µM in the assay with SK-MEL-5 melanoma; 9.24 µM with OVCAR-3 ovarian; 5.06 µM in the assay with K-562 leukemia. The TGI in the assay with SF-539 CNS was determined as 32.3 µM; in the assay with COLO 205 colon it was 21.9 µM; in the assay on SNB-75 CNS, 26.7 µM; with SK-MEL-5 melanoma, 24.9 µM; in the assay on HOP-62 NSCLC it was 32.7 µM; with SW-620 colon, 38.1 µM. The TGI with OVCAR-3 ovarian was 22.7 µM; in the assay on K-562 leukemia, more than 100 µM.

Turning to `COC(=O)CCC12CCC(=O)C1[C@@H](C(=O)OC)C[C@H]2C(=O)OC` (some centres not stated), the TGI with SF-539 CNS, in the assay with COLO 205 colon, with SNB-75 CNS, in the assay with SK-MEL-5 melanoma, in the assay with HOP-62 NSCLC and in the assay on SW-620 colon was more than 100 µM in each case. Further, the TGI with OVCAR-3 ovarian and in the assay on K-562 leukemia was more than 100 µM each time.

For `O=C(O)c1cc(=O)c2c([nH]c3ccccc32)s1`, the TGI in the assay with COLO 205 colon, in the assay with SNB-75 CNS, with SK-MEL-5 melanoma, in the assay on HOP-62 NSCLC, in the assay on SW-620 colon and with OVCAR-3 ovarian was more than 100 µM each time. Besides, in the assay on K-562 leukemia, the TGI was more than 100 µM.

Take `Cc1c(C(=O)/C=C/C=C/c2ccccc2)[n+](=O)c2ccccc2n1[O-]`: the TGI in the assay with SF-539 CNS was more than 100 µM; in the assay with COLO 205 colon, more than 100 µM; in the assay on SNB-75 CNS, more than 100 µM; in the assay with SK-MEL-5 melanoma it was 44.4 µM; in the assay with HOP-62 NSCLC, 54.5 µM; in the assay with SW-620 colon, more than 100 µM. Further, the TGI in the assay on OVCAR-3 ovarian is 83.3 µM; in the assay on K-562 leukemia, more than 100 µM.

With `CCOC(=O)CCC1(C(=O)OCC)CCCC1=O` (configuration not stated), the TGI with SF-539 CNS, in the assay with COLO 205 colon, in the assay on SNB-75 CNS, in the assay with SK-MEL-5 melanoma, in the assay with HOP-62 NSCLC and in the assay with OVCAR-3 ovarian was more than 100 µM throughout. For the same compound, in the assay on K-562 leukemia, the TGI is more than 100 µM.

As for `CNc1ccc2ncccc2c1[N+](=O)[O-]`, the TGI in the assay on SF-539 CNS, in the assay with SNB-75 CNS, in the assay on SK-MEL-5 melanoma, in the assay with HOP-62 NSCLC, in the assay on SW-620 colon and with OVCAR-3 ovarian was more than 100 µM throughout. Besides, in the assay on K-562 leukemia, the TGI is more than 100 µM.

For `Cc1cc(NC(=O)C2C3C=CC(O3)C2C(=O)O)no1` (configuration not stated), the TGI in the assay on SF-539 CNS was 54.9 µM; in the assay on COLO 205 colon, 31.5 µM; in the assay on SNB-75 CNS, more than 100 µM; with SK-MEL-5 melanoma it was more than 100 µM; with HOP-62 NSCLC, more than 100 µM; in the assay on SW-620 colon, 5.92 µM. Moreover, the TGI in the assay with OVCAR-3 ovarian was more than 100 µM; in the assay with K-562 leukemia, 42.5 µM.

Turning to `C#CCNC(=O)ON1C(=O)CCC1=O`, the TGI with SF-539 CNS, in the assay on COLO 205 colon, with SNB-75 CNS, in the assay with HOP-62 NSCLC, in the assay on SW-620 colon and in the assay on OVCAR-3 ovarian was more than 100 µM each time. The TGI in the assay on K-562 leukemia is more than 100 µM.

On to `CCc1cccc(C)c1NC(=O)CCc1nnc2s/c(=C\c3cccc4ccccc34)c(=O)n12`, for which the TGI with SF-539 CNS, in the assay with COLO 205 colon, with SNB-75 CNS, in the assay with SK-MEL-5 melanoma, in the assay with HOP-62 NSCLC and with SW-620 colon was more than 100 µM in each case. Moreover, the TGI in the assay with OVCAR-3 ovarian and with K-562 leukemia was more than 100 µM each time.

Regarding `CC1(c2cc3c(cc2Br)OCO3)SCCCS1`, the TGI in the assay with SF-539 CNS is more than 100 µM; in the assay on COLO 205 colon it was more than 100 µM; in the assay on SNB-75 CNS, more than 100 µM; in the assay on SK-MEL-5 melanoma it was 51 µM; in the assay on HOP-62 NSCLC, more than 100 µM; in the assay with SW-620 colon, more than 100 µM. The TGI with OVCAR-3 ovarian and in the assay on K-562 leukemia was more than 100 µM throughout.

For `Cc1cccc2c1c1ccc3c(c1n2C)C(=O)C=CC3=O`, the TGI is 15 µM in the assay with SF-539 CNS; 6.26 µM with COLO 205 colon; 42.8 µM in the assay on SNB-75 CNS; 29.6 µM in the assay on SK-MEL-5 melanoma; 37.8 µM in the assay on HOP-62 NSCLC; 4.33 µM in the assay on SW-620 colon. In addition, the TGI in the assay with OVCAR-3 ovarian stood at 5.08 µM; in the assay with K-562 leukemia it was 6.03 µM.

On to `O=[N+]([O-])c1cccc(-c2nc(-c3ccccc3)c(-c3ccccc3)[nH]2)c1`, for which the TGI with SF-539 CNS, with MCF7 breast, in the assay with COLO 205 colon, in the assay on SK-MEL-5 melanoma, in the assay with HOP-62 NSCLC and in the assay on SW-620 colon was more than 100 µM throughout. In addition, the TGI with OVCAR-3 ovarian and in the assay with K-562 leukemia was more than 100 µM throughout.

As for `COC(=O)C1=C(CS(=O)c2ccc([N+](=O)[O-])cc2[N+](=O)[O-])C2C=CC1C2` (configuration not stated), the TGI in the assay on SF-539 CNS was 51.2 µM; in the assay with COLO 205 colon, 41.5 µM; in the assay on SNB-75 CNS, 76.6 µM; in the assay on SK-MEL-5 melanoma, more than 100 µM; with HOP-62 NSCLC, more than 100 µM; with SW-620 colon, 28.6 µM. Besides, the TGI in the assay on OVCAR-3 ovarian was determined as 66.8 µM; with K-562 leukemia it was 52.5 µM.

On to `N#C/C(=C\c1cccc(O)c1O)C(N)=O`, for which the TGI is more than 100 µM in the assay with SF-539 CNS; 77.7 µM in the assay on COLO 205 colon; 47.2 µM in the assay on SNB-75 CNS; more than 100 µM with HOP-62 NSCLC; more than 100 µM with SW-620 colon; more than 100 µM in the assay on OVCAR-3 ovarian. The compound further had a TGI with K-562 leukemia of more than 100 µM.

Consider `Cc1ccc(S(=O)(=O)N=NC=C2c3ccccc3N(O)c3ccccc32)cc1`, for which the TGI is 7.99 µM in the assay with COLO 205 colon; 10.4 µM in the assay with SNB-75 CNS; 18.8 µM with SK-MEL-5 melanoma; 18.8 µM in the assay with HOP-62 NSCLC; 14.7 µM with SW-620 colon; 30 µM with OVCAR-3 ovarian. This compound also gave a TGI in the assay on K-562 leukemia of 13 µM.

With `O=c1nc(-c2ccccc2)cc(CC(O)c2ccc(Cl)c(Cl)c2)[nH]1` (configuration not stated), the TGI is more than 100 µM with SF-539 CNS; 31.7 µM in the assay with COLO 205 colon; more than 100 µM in the assay with SNB-75 CNS; more than 100 µM in the assay on SK-MEL-5 melanoma; more than 100 µM with HOP-62 NSCLC; more than 100 µM in the assay on SW-620 colon. The TGI with OVCAR-3 ovarian and with K-562 leukemia was more than 100 µM in each case.
